Measured values as given in ChEMBL document CHEMBL5154679, “A target and efficient synthetic strategy for structural and bioactivity optimization of a fungal natural product” (Eur J Med Chem, 2022).
In brackets after ≈: the same amount, converted by molar mass. One block for each molecule: values may come before it. Activity calls are given as the source filed them. The calls are words filed in the database; no cut-off is given here.

Key:
[1] = tested on: HCT-116; test: Antiproliferative activity against human HCT-116 cells assessed as reduction in cell viability incubated for 48 hrs by SRB assay; type: functional, cell-based; conditions: HCT-116, 48 h
[2] = tested on: HCT-116; test: Inhibition of colony formation in human HCT-116 cells at 2 ug/ml measured after 48 hrs by crystal violet staining based analysis; type: functional, cell-based; conditions: dose 2.0 µg/ml
[3] = tested on: HeLa; test: Inhibition of colony formation in human HeLa cells at 2 ug/ml measured after 48 hrs by crystal violet staining based analysis; type: functional, cell-based; conditions: dose 2.0 µg/ml
[4] = tested on: MCF7; test: Inhibition of colony formation in human MCF7 cells at 2 ug/ml measured after 48 hrs by crystal violet staining based analysis; type: functional, cell-based; conditions: dose 2.0 µg/ml
[5] = tested on: MDA-MB-231; test: Anti-metastasis activity against human MDA-MB-231 cells assessed as inhibition of cell migration at 2 ug/ml measured after 24 hrs by scratch wound healing assay; type: functional, cell-based; conditions: dose 2.0 µg/ml
[6] = AUC (0 to t) in Sprague-Dawley rat at 1 mg/kg, iv by LC-MS/MS analysis; type: ADME, organism-based; set-up: dose 1 mg/kg, route iv; conditions: in vivo
[7] = AUC (0 to infinity) in Sprague-Dawley rat at 1 mg/kg, iv by LC-MS/MS analysis; type: ADME, organism-based; set-up: time infinity, dose 1 mg/kg, route iv; conditions: in vivo
[8] = MRT (0 to t) in Sprague-Dawley rat at 1 mg/kg, iv by LC-MS/MS analysis; type: ADME, organism-based; conditions: in vivo
[9] = MRT (0 to infinity) in Sprague-Dawley rat at 1 mg/kg, iv by LC-MS/MS analysis; type: ADME, organism-based; conditions: in vivo
[10] = Half life in Sprague-Dawley rat at 1 mg/kg, iv by LC-MS/MS analysis; type: ADME, organism-based; conditions: in vivo
[11] = Clearance in Sprague-Dawley rat at 1 mg/kg, iv by LC-MS/MS analysis; type: ADME, organism-based; conditions: in vivo
[12] = Volume of distribution in Sprague-Dawley rat at 1 mg/kg, iv by LC-MS/MS analysis; type: ADME, organism-based; conditions: in vivo
[13] = Tmax in Sprague-Dawley rat at 1 mg/kg, iv by LC-MS/MS analysis; type: ADME, organism-based; conditions: in vivo
[14] = Cmax in Sprague-Dawley rat at 1 mg/kg, iv by LC-MS/MS analysis; type: ADME, organism-based; set-up: dose 1 mg/kg, route iv; conditions: in vivo
[15] = tested on: MDA-MB-231; test: Anti-invasive activity against human MDA-MB-231 cells assessed as inhibition of cell invasion at 2 ug/ml measured after 24 hrs by transwell assay; type: functional, cell-based; conditions: dose 2.0 µg/ml
[16] = tested on: HeLa; test: Antiproliferative activity against human HeLa cells assessed as reduction in cell viability incubated for 48 hrs by SRB assay; type: functional, cell-based
[17] = tested on: MCF7; test: Antiproliferative activity against human MCF7 cells assessed as reduction in cell viability incubated for 48 hrs by SRB assay; type: functional, cell-based; conditions: MCF7, 48 h
[18] = tested on: MDA-MB-231; test: Antiproliferative activity against human MDA-MB-231 cells assessed as reduction in cell viability incubated for 48 hrs by SRB assay; type: functional, cell-based; conditions: MDA-MB-231, 48 h
[19] = tested on: HepG2; test: Antiproliferative activity against human HepG2 cells assessed as reduction in cell viability incubated for 48 hrs by SRB assay; type: functional, cell-based; conditions: HepG2, 48 h
[20] = tested on: MGC-803; test: Antiproliferative activity against human MGC-803 cells assessed as reduction in cell viability incubated for 48 hrs by SRB assay; type: functional, cell-based; conditions: MGC-803, 48 h
[21] = Cytotoxicity against human HUVEC cells assessed as reduction in cell viability incubated for 48 hrs by SRB assay; type: toxicity, cell-based
[22] = Cytotoxicity against human L02 cells assessed as reduction in cell viability incubated for 48 hrs by SRB assay; type: toxicity, cell-based
[23] = tested on: MDA-MB-231; test: Anti-adhesion activity against human MDA-MB-231 cells assessed as inhibition of cell adhesion measured after 6 hrs by microscopic analysis; type: functional, cell-based

Structure (SMILES): COc1cc(=O)oc(/C=C/C=C/C=C/[C@@]2(C)C[C@]3(C)O[C@H](C)[C@](C)(O2)[C@H]3C(=O)C(C)(C)C)c1C
IC50 [1]: 4.98 µg/mL (≈ 10.6 µM)

Structure (SMILES): COc1cc(=O)oc(/C=C/C=C/C=C/[C@]2(C)O[C@]3(C)[C@@H](C(=O)c4cccnc4)[C@@](C)(O[C@@H]3C)[C@H]2C(=O)c2cccnc2)c1C
IC50 [1]: 12.5 µg/mL (≈ 21 µM)

Structure (SMILES): CCC[C@H]1[C@@]2(C)O[C@H](C)[C@]1(C)O[C@@](C)(/C=C/C=C/C=C/c1oc(=O)cc(OC)c1C)[C@@H]2CCC
IC50 [1]: 4.29 µg/mL (≈ 9.12 µM)

Structure (SMILES): COc1cc(=O)oc(/C=C/C=C/C=C/[C@]2(C)O[C@]3(C)[C@@H](O)[C@@](C)(O[C@@H]3C)[C@H]2O)c1C
IC50 [1]: 14.9 µg/mL (≈ 35.6 µM) | inhibition [2]: Active | inhibition [3]: Active | inhibition [4]: Active | Activity [5]: Active | AUC(0-t) [6]: 203 ng·h/mL | AUC(0-inf) [7]: 206 ng·h/mL | MRT last [8]: 19.8 min | MRT inf [9]: 21 min | half-life [10]: 21 min | clearance [11]: 83.2 mL/min/kg | Vd [12]: 2.5 L/kg | Tmax [13]: 6 min | Cmax [14]: 417 ng/mL | Activity [15]: Active

Structure (SMILES): COc1cc(=O)oc(/C=C/C=C/C=C/[C@@]2(C)C[C@]3(C)O[C@H](C)[C@](C)(O2)[C@H]3C(=O)c2ccco2)c1C
IC50 [1]: 1.4 µg/mL (≈ 2.91 µM) | IC50 [16]: 1.48 µg/mL (≈ 3.08 µM) | IC50 [17]: 0.74 µg/mL (≈ 1.54 µM) | IC50 [18]: 4.46 µg/mL (≈ 9.28 µM) | IC50 [19]: 4.19 µg/mL (≈ 8.72 µM) | IC50 [20]: 5.79 µg/mL (≈ 12 µM) | IC50 at 48 h [21]: > 50 µg/mL | IC50 at 48 h [22]: > 50 µg/mL

Structure (SMILES): COc1cc(=O)oc(/C=C/C=C/C=C/[C@@]2(C)C[C@]3(C)O[C@H](C)[C@](C)(O2)[C@H]3C(=O)CCc2ccc(Cl)cc2)c1C
IC50 [1]: 4.89 µg/mL (≈ 8.84 µM)

Structure (SMILES): COc1cccc2c1C(=O)c1c(O)c3c(c(O)c1C2=O)C[C@@](O)(C(=O)CO)C[C@@H]3O[C@H]1C[C@H](N)[C@H](O)[C@H](C)O1 [DOXORUBICIN]
IC50 [1]: 3.36 µg/mL (≈ 6.18 µM) | IC50 [16]: 0.051 µg/mL (≈ 0.0938 µM) | IC50 [18]: 0.37 µg/mL (≈ 0.681 µM) | IC50 [19]: 0.64 µg/mL (≈ 1.18 µM) | IC50 [20]: 0.51 µg/mL (≈ 0.938 µM) | IC50 at 48 h [21]: 23.3 µg/mL (≈ 42.9 µM) | IC50 at 48 h [22]: > 50 µg/mL

Structure (SMILES): COc1cc(=O)oc(/C=C/C=C/C=C/[C@@]2(C)C[C@]3(C)O[C@H](C)[C@](C)(O2)[C@H]3C(=O)Cc2ccc(Cl)cc2)c1C
IC50 [1]: 6.44 µg/mL (≈ 11.9 µM)

Structure (SMILES): COc1cc(=O)oc(/C=C/C=C/C=C/[C@@]2(C)C[C@]3(C)O[C@H](C)[C@](C)(O2)[C@H]3C(=O)c2ccccn2)c1C
IC50 [1]: 11.4 µg/mL (≈ 23.3 µM)

Structure (SMILES): COc1cc(=O)oc(/C=C/C=C/C=C/[C@@]2(C)C[C@]3(C)O[C@H](C)[C@](C)(O2)[C@H]3C(=O)c2cccs2)c1C
IC50 [1]: 0.63 µg/mL (≈ 1.27 µM) | IC50 [16]: 1.01 µg/mL (≈ 2.03 µM) | IC50 [17]: 0.62 µg/mL (≈ 1.25 µM) | IC50 [18]: 2.87 µg/mL (≈ 5.78 µM) | IC50 [19]: 2.42 µg/mL (≈ 4.87 µM) | IC50 [20]: 3.97 µg/mL (≈ 7.99 µM) | IC50 at 48 h [21]: > 50 µg/mL | IC50 at 48 h [22]: > 50 µg/mL | inhibition [2]: Active | inhibition [3]: Active | inhibition [4]: Active

Structure (SMILES): CCC[C@@H]1[C@@]2(C)O[C@@](C)(/C=C/C=C/C=C/c3oc(=O)cc(OC)c3C)C[C@]1(C)O[C@@H]2C
IC50 [1]: 5.9 µg/mL (≈ 13.8 µM)

Structure (SMILES): COc1cc(=O)oc(/C=C/C=C/C=C/C(C)=C/C2(C)O[C@H](C)[C@](C)(O)[C@H]2O)c1C (some centres not stated)
IC50 [1]: 19.8 µg/mL (≈ 49.1 µM)

Structure (SMILES): COc1cc(=O)oc(/C=C/C=C/C=C/[C@@]2(C)C[C@]3(C)O[C@H](C)[C@](C)(O2)[C@H]3C(C)=O)c1C
IC50 [1]: 7.04 µg/mL (≈ 16.4 µM)

Structure (SMILES): COc1cc(=O)oc(/C=C/C=C/C=C/[C@]2(C)O[C@]3(C)[C@@H](C(=O)c4ccccc4)[C@@](C)(O[C@@H]3C)[C@H]2C(=O)c2ccccc2)c1C
IC50 [1]: 28.8 µg/mL (≈ 48.4 µM)

Structure (SMILES): COc1cc(=O)oc(/C=C/C=C/C=C/[C@]2(C)O[C@]3(C)[C@@H](C(C)=O)[C@@](C)(O[C@@H]3C)[C@H]2C(C)=O)c1C
IC50 [1]: 5.77 µg/mL (≈ 12.3 µM)

The next lines start with results.

IC50 [1]: 1.23 µg/mL (≈ 2.34 µM) | IC50 [16]: 1.35 µg/mL (≈ 2.57 µM) | IC50 [17]: 0.68 µg/mL (≈ 1.3 µM) | IC50 [18]: 4.04 µg/mL (≈ 7.69 µM) | IC50 [19]: 1.96 µg/mL (≈ 3.73 µM) | IC50 [20]: 1.54 µg/mL (≈ 2.93 µM) | AUC(0-t) [6]: 7710 ng·h/mL | AUC(0-inf) [7]: 8640 ng·h/mL | MRT last [8]: 313 min | MRT inf [9]: 521 min | half-life [10]: 503 min | clearance [11]: 2 mL/min/kg | Vd [12]: 1.42 L/kg | Tmax [13]: 7.2 min | Cmax [14]: 3040 ng/mL
Structure (SMILES): COc1cc(=O)oc(/C=C/C=C/C=C/[C@@]2(C)C[C@]3(C)O[C@H](C)[C@](C)(O2)[C@H]3C(=O)c2ccc(Cl)cc2)c1C
IC50 at 48 h [21]: > 50 µg/mL | IC50 at 48 h [22]: > 50 µg/mL | inhibition [2]: Active | inhibition [3]: Active | inhibition [4]: Active | Activity [5]: Active | Activity [15]: Active | Activity [23]: Active

IC50 [1]: 12.5 µg/mL (≈ 25.4 µM)
Structure (SMILES): COc1cc(=O)oc(/C=C/C=C/C=C/[C@@]2(C)C[C@]3(C)O[C@H](C)[C@](C)(O2)[C@H]3C(=O)c2cccnc2)c1C

IC50 [1]: 4.97 µg/mL (≈ 9.55 µM)
Structure (SMILES): COc1ccc(C(=O)[C@@H]2[C@@]3(C)O[C@@](C)(/C=C/C=C/C=C/c4oc(=O)cc(OC)c4C)C[C@]2(C)O[C@@H]3C)cc1

IC50 [1]: 11.3 µg/mL (≈ 22 µM)
Structure (SMILES): COc1cc(=O)oc(/C=C/C=C/C=C/[C@@]2(C)C[C@]3(C)O[C@H](C)[C@](C)(O2)[C@H]3C(=O)c2ccc(C#N)cc2)c1C

IC50 [1]: 13.5 µg/mL (≈ 27.5 µM)
Structure (SMILES): COc1cc(=O)oc(/C=C/C=C/C=C/[C@@]2(C)C[C@]3(C)O[C@H](C)[C@](C)(O2)[C@H]3C(=O)c2ccncc2)c1C

IC50 [1]: 1.52 µg/mL (≈ 3.1 µM) | IC50 [16]: 0.85 µg/mL (≈ 1.73 µM) | IC50 [17]: 0.92 µg/mL (≈ 1.88 µM) | IC50 [18]: 4.38 µg/mL (≈ 8.93 µM) | IC50 [19]: 3.96 µg/mL (≈ 8.07 µM) | IC50 [20]: 3.97 µg/mL (≈ 8.09 µM)
Structure (SMILES): COc1cc(=O)oc(/C=C/C=C/C=C/[C@@]2(C)C[C@]3(C)O[C@H](C)[C@](C)(O2)[C@H]3C(=O)c2ccccc2)c1C
IC50 at 48 h [21]: > 50 µg/mL | IC50 at 48 h [22]: 30.1 µg/mL (≈ 61.4 µM)
